According to article PMC8469962, “Unusual Bicyclo[3.2.1]Octanoid Neolignans from Leaves of Piper crocatum and Their Effect on Pyruvate Dehydrogenase Activity” (Plants, 2021):
Entries after “also recorded” stand apart in the source; their conditions may differ.

Tested on: PDHE1α S300 phosphorylation
Assay: Pyruvate dehydrogenase complex (PDH) cellular activity: immunofluorescence of p-PDH E1α (Ser300) in AD-293 cells
Format: cell-based, Human
Details: for IC50: Homo sapiens, AD293, 24 h incubation, normalized to 5 mM DCA control, read-out: IC50, inhibition of PDHE1α S300 phosphorylation; for inhibition of phosphorylation of E1α S300 in fluorescent images, compared with DCA: compounds at 60 µM, DCA at 5 mM
Method: Point two percent gelatin was added to a black 96-well plate with a clear bottom and incubated for 1 h. Afterwards, the plate was washed with growth media. Human AD-293 cells, derived from the HEK293 cells, were seeded into black 96-well plates with a clear bottom and grown for 24 h. Compounds were then added and incubated for 24 h. The cells were then fixed with 2% paraformaldehyde, and permeabilized anti-PDHE1 pSer300 (Merk Millipore, Burlington, MA, AP1064) was added and incubated overnight. Next, the cells were washed and Alexa fluor 488, goat anti-rabbit ab (Invitrogen, Waltham, MA, A11008) was added with Hoechst 33,258 (Invitrogen, H3569) and incubated for 2 h. Finally, cells were washed, and the plates were measured in Operetta (PerkinElmer, Waltham, MA). The raw data were normalized for the pharmacological inhibitor control (5 mM dichloroacetate (DCA)) and percentage effect values using the software package Harmony High-Content Imaging and Analysis Software 3.1. Dose response curves were generated by plotting the percentage effect values and IC50 values were calculated via GraphPad Prism 6.

Row | Structure (SMILES) | IC50 | inhibition of phosphorylation of E1α S300 in fluorescent images, compared with DCA
1 | C=CCC12C=C(OC)C(=O)C(OC)(C(c3cc(OC)c(OC4OC(CO)C(O)C(O)C4O)c(OC)c3)C1C)C2O [Compound 2, (1′R,2′R,3′S,7S,8R)-∆^5′^,8′-2′-hydroxy-3,5,3′,5′-tetramethoxyl-4′-oxo-8.1′7.3′-neolignan-4-O-β-D-glucopyranoside] | 99.8 µM | better effect than that of dichloroacetate (DCA); also recorded: better inhibitory effect of compound 2 than that of compound 3 and DCA
2 | C=CCC1=CC2(OC)C(C)C(c3cc(OC)c(OC4OC(CO)C(O)C(O)C4O)c(OC)c3)C(OC)(C1=O)C2O [Compound 3, (1′R,2′S,3′R,7S,8R)-∆^5′^8′-2′-hydroxy-3,5,1′,3′-tetramethoxyl-4′-oxo-8.1′7.3′-neolignan-4-O-β-D-glucopyranoside] | 80.2 µM | better effect than that of dichloroacetate (DCA)
